{"source": "patent US8790695B2", "about": "“Medicinal carriers, and preparation method and uses thereof” (China Medical University, priority 2012, dated 2014)", "key": {"Helicobacter pylori [1]": {"tested_on": "Helicobacter pylori", "settings": "stomach tissue of infected mice, 37° C. for 12 hours", "source_text": "Small black mice were fed with a broth containing 1.0×10^9 CFU/ml Helicobacter pylori continually for 6 times in 2 weeks, to establish a Helicobacter pylori-infected animal model. The mice were fasted one night before fed with Helicobacter pylori, to decrease the mucus in the stomach, and thereby, increase the probability of infection. Then, the Helicobacter pylori-infected mice (6 mice each group) were fed with (a) the nano medicinal carrier obtained from example 1 (2) (control group); (b) 30 mg/kg amoxicillin; and (c) nano medicinal carrier (the concentration of amoxicillin, 30 mg/kg) obtained from example 1 (4) once daily for 10 days.\nCampylobacter-like organism assay (CLO assay) was conducted to evaluate the effect of nano medicinal carrier on treating the Helicobacter pylori-infected mice. The internal side of the stomach tissue of the Helicobacter pylori-infected mice was touch with CLO gel and compressed, the tissue was incubated at 37° C. for 12 hours, and the variation of the color of the CLO gel was observed. The CLO gel without Helicobacter pylori (contacted with deionized water) is a yellow color. The CLO gel with a little of Helicobacter pylori is a yellow-orange color. The CLO gel with a lot of Helicobacter pylori is a red color. A darker color represents a higher amount of Helicobacter pylori."}, "Helicobacter pylori [2]": {"tested_on": "Helicobacter pylori", "settings": "infected mice, fed 30 mg/kg amoxicillin once daily for 10 days", "source_text": "Small black mice were fed with a broth containing 1.0×10^9 CFU/ml Helicobacter pylori continually for 6 times in 2 weeks, to establish a Helicobacter pylori-infected animal model. The mice were fasted one night before fed with Helicobacter pylori, to decrease the mucus in the stomach, and thereby, increase the probability of infection. Then, the Helicobacter pylori-infected mice (6 mice each group) were fed with (a) the nano medicinal carrier obtained from example 1 (2) (control group); (b) 30 mg/kg amoxicillin; and (c) nano medicinal carrier (the concentration of amoxicillin, 30 mg/kg) obtained from example 1 (4) once daily for 10 days. Then, the mice were sacrificed, and the tissue in the stomach was taken off to conduct the colony number experiment."}}, "data": [{"smiles": "CC1(C)S[C@@H]2[C@H](NC(=O)[C@H](N)c3ccc(O)cc3)C(=O)N2[C@H]1C(=O)O", "note": "[amoxicillin solution, amoxicillin]", "values": [{"measurement": "color of the CLO gel (darker color = higher amount of Helicobacter pylori)", "setting": "Helicobacter pylori [1]", "value": "red color"}, {"measurement": "The colony number of Helicobacter pylori in the stomach tissue of the mice", "setting": "Helicobacter pylori [2]", "value": "316.9 ± 30.5"}]}]}
